Data taken from the supplement of paper PMC10307832.

Assays:
Test in all cases: relative viability (nuclei count vs DMSO), 5 days (fraction); higher = more cells survive
[1] = system: LCLC-103H
Method in brief: (§1)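 Lung cancer cell lines were seeded in 1536-well plates and dosed by pin tool the next day, with either a single drug or a fixed anchor-drug dose combined with five library-drug doses (not always all listed) spaced in √10 steps. Five days later, one step fixed the cells and stained their nuclei (final 0.05% Triton X-100, 1% formaldehyde, 1 ug/ml Hoechst), and nuclei were counted on 4× images. Relative viability is the nuclei count in treated wells divided by the count in vehicle wells, and each value is the median of duplicate plates.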

[2] = system: LXF-289
Method in brief: as §1

[3] = system: NCI-H1355
Method in brief: as §1

[4] = system: NCI-H1563
Method in brief: as §1

[5] = system: NCI-H1651
Method in brief: as §1

[6] = system: NCI-H1755
Method in brief: as §1

[7] = system: NCI-H1792
Method in brief: as §1

[8] = system: NCI-H1915
Method in brief: as §1

[9] = system: NCI-H2170
Method in brief: as §1

[10] = system: NCI-H2347
Method in brief: as §1

[11] = system: NCI-H3122
Method in brief: as §1

[12] = system: NCI-H322M
Method in brief: as §1

[13] = system: NCI-H441
Method in brief: as §1

[14] = system: NCI-H460
Method in brief: as §1

[15] = system: NCI-H520
Method in brief: as §1

[16] = system: NCI-H596
Method in brief: as §1

[17] = system: NCI-H650
Method in brief: as §1

[18] = system: NCI-H661
Method in brief: as §1

[19] = system: NCI-H727
Method in brief: as §1

[20] = system: PC-14
Method in brief: as §1

[21] = system: RERF-LC-KJ
Method in brief: as §1

[22] = system: SK-MES-1
Method in brief: as §1

`C=C1C(=O)O[C@@H](CCCCCCCC)[C@@H]1C(=O)O` [C-75] + C[C@@H](Oc1cc(-c2cnn(C3CCNCC3)c2)cnc1N)c1c(Cl)ccc(F)c1Cl [Crizotinib] (partner 1 µM) was tested. Which relative viability ([1]; first compound 0.08 µM) did it give?
The relative viability was 1.08.

What about the relative viability ([1]; first compound 0.253 µM) of the same molecule?
Its relative viability is 1.03.

What about the relative viability ([1]; first compound 0.8 µM) of the same molecule?
Its relative viability is 1.05.

What about the relative viability ([1]; first compound 2.53 µM) of the same molecule?
The relative viability was 0.899.

And the relative viability ([1]; first compound 8 µM)?
The relative viability was 0.978.

And the relative viability ([2]; first compound 0.08 µM)?
The relative viability was 0.795.

What about the relative viability ([2]; first compound 0.253 µM) of the same molecule?
The relative viability was 0.793.

And the relative viability ([2]; first compound 0.8 µM)?
Its relative viability is 0.812.

And the relative viability ([2]; first compound 2.53 µM)?
Its relative viability is 0.739.

And the relative viability ([2]; first compound 8 µM)?
The relative viability was 0.806.

And the relative viability ([3]; first compound 0.08 µM)?
The relative viability was 1.05.

What about the relative viability ([3]; first compound 0.253 µM) of the same molecule?
The relative viability was 1.01.

And the relative viability ([3]; first compound 0.8 µM)?
Its relative viability is 0.97.

And the relative viability ([3]; first compound 2.53 µM)?
Its relative viability is 1.1.

What about the relative viability ([3]; first compound 8 µM) of the same molecule?
Its relative viability is 1.01.

What about the relative viability ([4]; first compound 0.08 µM) of the same molecule?
Its relative viability is 0.801.

What about the relative viability ([4]; first compound 0.253 µM) of the same molecule?
Its relative viability is 0.909.

What about the relative viability ([4]; first compound 0.8 µM) of the same molecule?
The relative viability was 0.865.

And the relative viability ([4]; first compound 2.53 µM)?
Its relative viability is 0.826.

And the relative viability ([4]; first compound 8 µM)?
Its relative viability is 0.931.

What about the relative viability ([5]; first compound 0.08 µM) of the same molecule?
The relative viability was 0.793.

And the relative viability ([5]; first compound 0.253 µM)?
The relative viability was 0.882.

What about the relative viability ([5]; first compound 0.8 µM) of the same molecule?
The relative viability was 0.852.

And the relative viability ([5]; first compound 2.53 µM)?
The relative viability was 0.731.

And the relative viability ([5]; first compound 8 µM)?
The relative viability was 0.889.

And the relative viability ([6]; first compound 0.08 µM)?
The relative viability was 0.87.

And the relative viability ([6]; first compound 0.253 µM)?
Its relative viability is 0.853.

And the relative viability ([6]; first compound 0.8 µM)?
The relative viability was 0.836.

And the relative viability ([6]; first compound 2.53 µM)?
The relative viability was 0.541.

And the relative viability ([6]; first compound 8 µM)?
Its relative viability is 0.824.

And the relative viability ([7]; first compound 0.08 µM)?
Its relative viability is 1.01.

And the relative viability ([7]; first compound 0.253 µM)?
The relative viability was 0.918.

What about the relative viability ([7]; first compound 0.8 µM) of the same molecule?
The relative viability was 0.919.

And the relative viability ([7]; first compound 2.53 µM)?
Its relative viability is 0.857.

What about the relative viability ([7]; first compound 8 µM) of the same molecule?
The relative viability was 0.879.

What about the relative viability ([8]; first compound 0.08 µM) of the same molecule?
The relative viability was 0.924.

What about the relative viability ([8]; first compound 0.253 µM) of the same molecule?
Its relative viability is 0.914.

And the relative viability ([8]; first compound 0.8 µM)?
Its relative viability is 0.879.

What about the relative viability ([8]; first compound 2.53 µM) of the same molecule?
The relative viability was 0.819.

And the relative viability ([8]; first compound 8 µM)?
The relative viability was 0.804.

And the relative viability ([9]; first compound 0.08 µM)?
The relative viability was 1.25.

And the relative viability ([9]; first compound 0.253 µM)?
Its relative viability is 1.28.

And the relative viability ([9]; first compound 0.8 µM)?
The relative viability was 1.23.

What about the relative viability ([9]; first compound 2.53 µM) of the same molecule?
The relative viability was 1.07.

And the relative viability ([9]; first compound 8 µM)?
The relative viability was 1.24.

And the relative viability ([10]; first compound 0.08 µM)?
Its relative viability is 0.735.

And the relative viability ([10]; first compound 0.253 µM)?
The relative viability was 0.752.

And the relative viability ([10]; first compound 0.8 µM)?
Its relative viability is 0.63.

What about the relative viability ([10]; first compound 2.53 µM) of the same molecule?
The relative viability was 0.711.

And the relative viability ([10]; first compound 8 µM)?
The relative viability was 0.648.

What about the relative viability ([11]; first compound 0.08 µM) of the same molecule?
Its relative viability is 0.26.

What about the relative viability ([11]; first compound 0.253 µM) of the same molecule?
Its relative viability is 0.254.

What about the relative viability ([11]; first compound 0.8 µM) of the same molecule?
Its relative viability is 0.3.

And the relative viability ([11]; first compound 8 µM)?
Its relative viability is 0.269.

What about the relative viability ([12]; first compound 0.08 µM) of the same molecule?
The relative viability was 0.977.

What about the relative viability ([12]; first compound 0.253 µM) of the same molecule?
Its relative viability is 1.19.

And the relative viability ([12]; first compound 0.8 µM)?
The relative viability was 0.919.

What about the relative viability ([12]; first compound 2.53 µM) of the same molecule?
The relative viability was 0.971.

What about the relative viability ([12]; first compound 8 µM) of the same molecule?
The relative viability was 0.973.

And the relative viability ([13]; first compound 0.08 µM)?
The relative viability was 0.857.

And the relative viability ([13]; first compound 0.253 µM)?
The relative viability was 0.762.

What about the relative viability ([13]; first compound 0.8 µM) of the same molecule?
The relative viability was 0.556.

What about the relative viability ([13]; first compound 2.53 µM) of the same molecule?
Its relative viability is 0.46.

What about the relative viability ([13]; first compound 8 µM) of the same molecule?
Its relative viability is 0.585.

What about the relative viability ([14]; first compound 0.08 µM) of the same molecule?
Its relative viability is 0.88.

What about the relative viability ([14]; first compound 0.253 µM) of the same molecule?
The relative viability was 1.07.

And the relative viability ([14]; first compound 0.8 µM)?
The relative viability was 0.696.

What about the relative viability ([14]; first compound 8 µM) of the same molecule?
Its relative viability is 0.696.

And the relative viability ([15]; first compound 0.08 µM)?
Its relative viability is 0.607.

What about the relative viability ([15]; first compound 0.253 µM) of the same molecule?
Its relative viability is 0.841.

And the relative viability ([15]; first compound 0.8 µM)?
Its relative viability is 0.673.

And the relative viability ([15]; first compound 2.53 µM)?
The relative viability was 0.706.

And the relative viability ([15]; first compound 8 µM)?
The relative viability was 0.651.

What about the relative viability ([16]; first compound 0.08 µM) of the same molecule?
Its relative viability is 1.01.

And the relative viability ([16]; first compound 0.253 µM)?
The relative viability was 0.937.

And the relative viability ([16]; first compound 0.8 µM)?
The relative viability was 0.794.

And the relative viability ([16]; first compound 2.53 µM)?
Its relative viability is 0.875.

And the relative viability ([16]; first compound 8 µM)?
The relative viability was 1.03.

And the relative viability ([17]; first compound 0.08 µM)?
The relative viability was 0.679.

And the relative viability ([17]; first compound 0.253 µM)?
The relative viability was 0.72.

What about the relative viability ([17]; first compound 0.8 µM) of the same molecule?
Its relative viability is 0.668.

And the relative viability ([17]; first compound 2.53 µM)?
The relative viability was 0.597.

What about the relative viability ([17]; first compound 8 µM) of the same molecule?
Its relative viability is 0.729.

And the relative viability ([18]; first compound 0.08 µM)?
The relative viability was 1.1.

What about the relative viability ([18]; first compound 0.253 µM) of the same molecule?
The relative viability was 1.02.

And the relative viability ([18]; first compound 0.8 µM)?
Its relative viability is 1.04.

What about the relative viability ([18]; first compound 2.53 µM) of the same molecule?
The relative viability was 0.933.

What about the relative viability ([18]; first compound 8 µM) of the same molecule?
Its relative viability is 1.09.

And the relative viability ([19]; first compound 0.08 µM)?
Its relative viability is 0.825.

And the relative viability ([19]; first compound 0.253 µM)?
Its relative viability is 1.2.

And the relative viability ([19]; first compound 0.8 µM)?
The relative viability was 0.772.

And the relative viability ([19]; first compound 2.53 µM)?
The relative viability was 0.57.

What about the relative viability ([19]; first compound 8 µM) of the same molecule?
The relative viability was 1.11.

What about the relative viability ([20]; first compound 0.08 µM) of the same molecule?
Its relative viability is 0.836.

What about the relative viability ([20]; first compound 0.253 µM) of the same molecule?
Its relative viability is 0.905.

What about the relative viability ([20]; first compound 0.8 µM) of the same molecule?
The relative viability was 0.893.

What about the relative viability ([20]; first compound 2.53 µM) of the same molecule?
The relative viability was 0.741.

And the relative viability ([20]; first compound 8 µM)?
The relative viability was 0.998.

And the relative viability ([21]; first compound 0.08 µM)?
Its relative viability is 0.881.

What about the relative viability ([21]; first compound 0.253 µM) of the same molecule?
The relative viability was 0.846.

And the relative viability ([21]; first compound 0.8 µM)?
Its relative viability is 0.815.

And the relative viability ([21]; first compound 2.53 µM)?
Its relative viability is 0.704.

And the relative viability ([21]; first compound 8 µM)?
The relative viability was 0.86.

And the relative viability ([22]; first compound 0.08 µM)?
The relative viability was 1.04.

And the relative viability ([22]; first compound 0.253 µM)?
The relative viability was 0.997.

What about the relative viability ([22]; first compound 0.8 µM) of the same molecule?
Its relative viability is 0.953.

And the relative viability ([22]; first compound 8 µM)?
Its relative viability is 0.941.
